Measured values taken from US9914712B2, “Antibacterial thiazolecarboxylic acids” (priority 2013, dated 2018).

Assays:
IMP-1 = target: T1, IMP-1 (Serratia marcescens, UniProt P52699); test: In vitro MBL inhibition assay, imipenem hydrolysis (IMP-1); assay type: biochemical; conditions: Ki IMP-1, imipenem substrate, Ki from IC50 by Cheng-Prusoff, Km 25 μM
T1 construct: made in house
Description: The MBL enzyme IMP-1 is produced and purified as disclosed in Laraki et al, Antimicrobial Agents & Chemotherapy, (1999), 43(4), 902-906.
(§1) Reaction buffers were prepared in a UV-transparent 96-well microplate, which buffer contains 10 mM HEPES pH 7.5, 50 μM ZnSO4, 20 μg/mL BSA. An amount of 75 ng of protein was added to each well.
(§2) Spectrophometric assays are performed to determine NDM-1/VIM-2/IMP-1 carbapenemase activity using purified proteins (50 ng for NDM-1/VIM-2, 25 ng IMP-1) from NDM-1/VIM-2/IMP-1 expressing bacteria using […] of imipenem as substrate in 10 mM HEPES pH 7.5, 50 μM ZnSO4. MBL hydrolysis is measured at 299 nm for 10 minutes at 30° C. as the absorbance changes due to the opening of beta-lactam ring of the antibiotic.
(§3) The Ki values obtained for selected example compounds are shown in Table 3, where they are compared with the values for pyridine-2-carboxylic acid.

NTBC039 = test: MIC of meropenem in presence of the inhibitor, broth microdilution; assay type: cell-based; conditions: compound at 100 μM, 37° C., 18-20 h
NDM-1 = target: T2, NDM-1 (Klebsiella pneumoniae, UniProt C7C422); test: In vitro MBL inhibition assay, imipenem hydrolysis (NDM-1); assay type: biochemical; conditions: Ki NDM-1, imipenem substrate, Ki from IC50 by Cheng-Prusoff, Km 70 μM
T2 construct: made in house
T2 sequence (C7C422 29-270 limits assumed): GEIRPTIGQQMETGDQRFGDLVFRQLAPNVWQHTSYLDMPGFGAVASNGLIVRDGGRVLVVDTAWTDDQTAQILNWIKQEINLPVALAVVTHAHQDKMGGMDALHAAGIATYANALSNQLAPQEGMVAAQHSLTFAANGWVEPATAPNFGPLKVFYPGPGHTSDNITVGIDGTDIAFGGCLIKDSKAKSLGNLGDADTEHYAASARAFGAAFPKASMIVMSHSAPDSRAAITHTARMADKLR
Description: NDM-1 is produced and purified as disclosed in Yong et al, Antimicrobial Agents & Chemotherapy, (2009) 53(12), 5046-54.
as §1, §2, §3

VIM-2 = target: T3, VIM-2 (Escherichia coli, UniProt Q5U7L7); test: In vitro MBL inhibition assay, imipenem hydrolysis (VIM-2); assay type: biochemical; conditions: Ki VIM-2, imipenem substrate, Ki from IC50 by Cheng-Prusoff, Km 9 μM
T3 construct: made in house
Description: The MBL enzyme VIM-2 is produced and purified as disclosed in Borgianni et al, Antimicrobial Agents & Chemotherapy, (2010), 54(8), 3197-3204.
as §1, §2, §3

[1] = system: NTBC023 strain: Klebsiella pneumoniae producing VIM-1+SHV-5; test: MIC of meropenem in presence of the inhibitor, broth microdilution; assay type: cell-based; conditions: compound at 100 μM, 37° C., 18-20 h
Description: (§4) The minimal inhibitory concentration (MIC) of meropenem in presence of the inhibitor is routinely assessed against 3 representative clinical strains: • NTBC020 Strain: Escherichia coli producing NDM-1+TEM-1+CTX-M-15, (isolated in Australia in 2009); • NTBC023 strain: Klebsiella pneumoniae producing VIM-1+SHV-5, (isolated in France in 2002); • NTBC062 strain: Klebsiella pneumoniae producing IMP-1+TEM-1, (isolated in France in 2012);
(§5) The assay was performed according to the standard broth microdilution method described by the Clinical and Laboratory Standards Institute (CLSI-M7-A7—Methods for dilution antimicrobial susceptibility tests for bacteria that grow aerobically; Approved standard; CLSI, Wayne, Pa., USA. 2006). This method involves the use of small volumes of broth dispensed in sterile, plastic 96-wells microdilution plates. The compounds were tested at a concentration of 100 μM and controls included the susceptibility tests for the three selected strains without the compounds and for the two reference strains E. coli ATCC 25922 and Pseudomonas aeruginosa ATCC 27853 as Quality Controls.
(§6) From a stock solution at 20 mM in DMSO, compounds were prepared by diluting 0.04 mL of the compound solution in 0.04 mL of Mueller-Hinton (MH) broth (2-fold dilution). Then, 0.001 mL of the compound dilution was distributed in the 96-wells microdilution plates to give a final concentration of 100 μM for a final volume of 0.1 mL by well.
(§7) From a meropenem stock solution at 10 mg/ml in water, meropenem 2-fold serial dilutions were prepared in MH broth at twice the desired final concentrations, e.g from 512 to 0.0037 μg/ml. The 96-wells microdilution plates were then filled with 0.05 mL of the meropenem dilutions. For each susceptibility test, two wells were left free of antibiotic and filled with 0.05 mL of sterile MH broth to serve as growth controls.
(§8) The bacterial inoculum was prepared by direct colony suspension from a 24 h-agar plate in saline solution (NaCl 9 g/L). The suspension was adjusted to a 0.5 MacFarland turbidity standard (1-2×10^8 CFU/mL) and then diluted 1:100 in MH broth. 0.05 mL of the bacterial dilution was then inoculated to each well giving a final volume of 0.1 mL and a final bacterial concentration of approximately 5×10^5 CFU/mL.
(§9) Microdilution plates were incubated at 37° C. in an ambient air incubator for 18-20 h.

[2] = system: NTBC020 Strain: Escherichia coli producing NDM-1+TEM-1+CTX-M-15; test: as above; assay type: cell-based; conditions: compound at 100 μM, 37° C., 18-20 h
Description: as §4, §5, §6, §7, §8, §9

T1 sequence (P52699 19-246, species assumed): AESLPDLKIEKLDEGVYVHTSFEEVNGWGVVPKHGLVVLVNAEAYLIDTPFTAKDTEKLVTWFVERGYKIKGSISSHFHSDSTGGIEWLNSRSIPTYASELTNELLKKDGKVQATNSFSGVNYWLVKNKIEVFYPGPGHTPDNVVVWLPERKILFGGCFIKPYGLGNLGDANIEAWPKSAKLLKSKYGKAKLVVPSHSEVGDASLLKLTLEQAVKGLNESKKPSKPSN

Compound | Ki (IMP-1) | MIC of meropenem, strain NTBC039 (NTBC039) | Ki (NDM-1) | Ki (VIM-2) | MIC of meropenem, strain NTBC023 [1] | MIC of meropenem, strain NTBC020 [2]
N[C@@H](C(=O)N1CCC(c2ccc(S(=O)(=O)Nc3scnc3C(=O)O)cc2)CC1)c1ccccc1 [Compound 172, S-5-[[4-[1-(2-amino-2-phenyl-acetyl)-4-piperidyl]phenyl]sulfonylamino]thiazole-4-carboxylic acid] | 0.76 µM | 8 µg/mL | 0.22 µM | 0.05 µM | 8 µg/mL | 64 µg/mL
O=C(O)c1ncsc1NS(=O)(=O)C1CCc2ccccc21 (centres unmarked) [Compound 104, 5-(2,3-dihydro-1H-indene-1-sulfonamido)-1,3-thiazole-4-carboxylic acid] |  | 2 µg/mL |  |  | 4 µg/mL | 16 µg/mL
O=C(O)c1ncsc1NS(=O)(=O)c1ccccc1Cl [Compound 66, 5-[(2-chlorophenyl)sulfonamido]-1,3-thiazole-4-carboxylic acid] |  | 8 µg/mL |  |  | 8 µg/mL | 16 µg/mL
O=C(O)c1ncsc1NS(=O)(=O)c1ccc(N2CCCCC2)nc1 [Compound 138, 5-[6-(piperidin-1-yl)pyridin-3-ylsulfonamido]-1,3-thiazole-4-carboxylic acid] | 0.13 µM | 1 µg/mL | 0.43 µM | 0.01 µM | 16 µg/mL | 32 µg/mL
O=C(O)c1ncsc1NS(=O)(=O)Cc1cc2c(cc1Cl)OCO2 [Compound 144, 5-[(6-chloro-2H-1,3-benzodioxol-5-yl)methylsulfonamido]-1,3-thiazole-4-carboxylic acid] |  | 1 µg/mL |  |  | 8 µg/mL | 16 µg/mL
O=C(O)c1ncsc1NS(=O)(=O)CC1CCCCC1 [Compound 69, 5-(cyclohexylmethyl)sulfonamido-1,3-thiazole-4-carboxylic acid] |  | 1 µg/mL |  |  | 4 µg/mL | 16 µg/mL
O=C(O)c1ncsc1NS(=O)(=O)Cc1cccc(F)c1F [Compound 124, 5-{[(2,3-difluorophenyl)methyl]sulfonamido}-1,3-thiazole-4-carboxylic acid] |  | 0.25 µg/mL |  |  | 4 µg/mL | 4 µg/mL
O=C(O)c1ncsc1NS(=O)(=O)c1ccc(C2CCNCC2)cc1 [Compound 118, 5-{[4-(piperidin-4-yl)phenyl]sulfonamido}-1,3-thiazole-4-carboxylic acid] |  | 4 µg/mL |  |  | 8 µg/mL | 4 µg/mL
O=C(O)c1ncsc1NS(=O)(=O)CCCc1ccccc1 [Compound 101, 5-[(3-phenylpropyl)sulfonamido]-1,3-thiazole-4-carboxylic acid] |  | 1 µg/mL |  |  | 8 µg/mL | 32 µg/mL
O=C(O)c1ncsc1NS(=O)(=O)c1ccccc1 [Compound 1, 5-benzenesulfonamido-1,3-thiazole-4-carboxylic acid] | 0.08 µM | 16 µg/mL | 1.2 µM | 0.32 µM | 64 µg/mL | 32 µg/mL
O=C(O)c1ncsc1NS(=O)(=O)Cc1cccc(Cl)c1Cl [Compound 48, 5-{[(2,3-dichlorophenyl)methyl]sulfonamido}-1,3-thiazole-4-carboxylic acid] |  | 0.25 µg/mL |  |  | 2 µg/mL | 4 µg/mL
O=C(O)c1ncsc1NS(=O)(=O)Cc1cccnc1 [Compound 170, 5-(3-pyridylmethylsulfonylamino)thiazole-4-carboxylic acid] |  | 0.25 µg/mL | 4.2 µM | 0.46 µM | 1 µg/mL | 16 µg/mL
O=C(O)c1ncsc1NS(=O)(=O)c1csc2ccccc12 [Compound 41, 5-(1-benzothiophene-3-sulfonamido)-1,3-thiazole-4-carboxylic acid] | 0.08 µM | 4 µg/mL | 0.67 µM | 0.22 µM | 16 µg/mL | 64 µg/mL
O=C(O)c1ncsc1NS(=O)(=O)CC1CCOCC1 [Compound 111, 5-[(oxan-4-ylmethyl)sulfonamido]-1,3-thiazole-4-carboxylic acid] | 0.9 µM | 0.25 µg/mL | 2.8 µM | 0.22 µM | 8 µg/mL | 4 µg/mL
O=C(O)c1ncsc1NS(=O)(=O)N1CCc2ccccc21 [Compound 147, 5-[(2,3-dihydroindole-1-sulfonyl)amino]-1,3-thiazole-4-carboxylic acid] |  | 4 µg/mL |  |  | 16 µg/mL | 8 µg/mL
O=C(O)c1ncsc1NS(=O)(=O)c1ccc(-n2cccn2)cc1 [Compound 94, 5-{[4-(1H-pyrazol-1-yl)phenyl]sulfonamido}-1,3-thiazole-4-carboxylic acid] |  | 4 µg/mL |  |  | 8 µg/mL | 16 µg/mL
O=C(O)c1ncsc1NS(=O)(=O)CCc1ccccc1 [Compound 7, 5-(2-phenylethylsulfonamido)thiazole-4-carboxylic acid] | 0.03 µM |  | 0.75 µM | 0.08 µM |  | 
N[C@@H](C(=O)N1CCC(c2ccc(S(=O)(=O)Nc3scnc3C(=O)O)cc2)CC1)c1ccccc1 [Compound 173, R-5-[[4-[1-(2-amino-2-phenyl-acetyl)-4-piperidyl]phenyl]sulfonylamino]thiazole-4-carboxylic acid] | 0.33 µM | 8 µg/mL | 0.18 µM | 0.04 µM | 8 µg/mL | 128 µg/mL
O=C(O)c1ncsc1NS(=O)(=O)c1cccnc1 [Compound 67, 5-(pyridine-3-sulfonamido)-1,3-thiazole-4-carboxylic acid] |  | 8 µg/mL |  |  | 16 µg/mL | 1 µg/mL
